Data: article PMC12483151, “Late-Stage Functionalization of Lysine to Organelle-Targeting Fluorescent Probes” (JACS Au, 2025)
“And” between values parts separate entries of the source, which are not always exact repeats. Equal entries are not always repeated. Where a SMILES comes first, the peptide text is derived from it.

Columns and labels:
E. coli = settings: MHB, 37 °C, 18 h, OD600; for Discrete-well MIC (CLSI definition, two-fold dilutions): E. coli ~5 x 10^5 CFU/mL, lowest concentration with ≤ 10 % growth; for Extrapolated (interpolated) MIC (4-parameter logistic fit): E. coli, concentration at 10 % growth by curve fit
Method: Plates were sealed and incubated
(1 picture or pasted object on this page, not shown here)

T-47D cells [1] = tested on: T-47D cells
T-47D cells [2] = assay: Mitochondrial colocalization imaging with MitoTracker Red; format: cell-based, Human; settings: T-47D live cells
Method: Cells were plated in an IBIDI 8-well glass bottom chamber at a density of 25,000 cells per well in media and allowed to adhere overnight at 37 °C, 5% CO2. Fresh 10 mM stock solutions of probes were prepared in DMSO on the day of experimentation. Working solutions of all compounds in media were prepared on the day of experimentation. Culture media was removed from the wells, and 200 mL of 100 nM probe was added to the desired wells and placed in an incubator for 30 min. Media was removed from the wells, and 200 mL of 100 nM MitroTracker-Red FM (ThermoFisher, M22425) was added to the desired wells and placed in an incubator for 15 min. Staining media was removed, and cells were washed with 200 μL of PBS for 5 min (repeated 3 times). PBS was removed and replaced with 200 mL of fresh medium, followed by immediate imaging. Five images were captured for each well. Colocalization analysis for Pearson’s R (R) and Mander’s Colocalization Coefficient (MCC) was conducted using the EzColocalization Plugin for ImageJ.
Colocalization studies – EzColocalization Details. Co-localization studies were done using
EzColocalization. EzColocalization is an ImageJ Application Program Interface (APIs)-an open-source
plugin, where individual cells can be highlighted and colocalization studies can be run across three
channels. The metric matrix for TOS (linear scaling) in the heatmap quantifies colocalization. FT […]

CC(=O)N[C@@H](CCCCN)C(=O)N[C@@H](CCCNC(=N)N)C(=O)N[C@@H](Cc1c[nH]c2ccccc12)C(=O)N[C@@H](CCCNC(=N)N)C(=O)N[C@@H](Cc1c[nH]c2ccccc12)C(N)=O [2g] (Ac-KRWRW-NH2)
Discrete-well MIC (CLSI definition, two-fold dilutions) (E. coli): 125 µM | Extrapolated (interpolated) MIC (4-parameter logistic fit) (E. coli): 0.0693 mM and 0.069 ± 0.06 mM

COc1ccc(C(=O)c2c(-c3ccc(OC)cc3)cc(-c3ccc(OC)cc3)[n+](CCCC[C@H](NC(=O)[C@H](CC(=O)O)NC(=O)[C@H](CC(C)C)NC(C)=O)C(=O)N[C@H](C(=O)N[C@@H](CC(N)=O)C(=O)N[C@@H](CCCNC(=N)N)C(N)=O)C(C)C)c2-c2ccc(OC)cc2)cc1 [5b]
Percentage cell death (average) (T-47D cells [1]; 100 nM, 1 h, Annexin V/PI, n = 3 biological replicates, one average given for 4f and 5b): 4.6%

COc1ccc(C(=O)c2c(-c3ccc(OC)cc3)cc(-c3ccc(OC)cc3)[n+](CCCC[C@H](NC(C)=O)C(=O)N[C@@H](CCCNC(=N)N)C(=O)N[C@@H](Cc3c[nH]c4ccccc34)C(=O)N[C@@H](CCCNC(=N)N)C(=O)N[C@@H](Cc3c[nH]c4ccccc34)C(N)=O)c2-c2ccc(OC)cc2)cc1 [5g]
Discrete-well MIC (CLSI definition, two-fold dilutions) (E. coli): 125 µM | Extrapolated (interpolated) MIC (4-parameter logistic fit) (E. coli): 0.0715 mM and 0.072 ± 0.01 mM

COc1cccc2c1C(=O)c1c(O)c3c(c(O)c1C2=O)C[C@@](O)(C(=O)CO)C[C@@H]3O[C@H]1C[C@H](N)[C@H](O)[C@H](C)O1 [Dox, doxorubicin]
survival less than DOX-Py (T-47D cells [1]; 100 nM, 1 h, Annexin V/PI, n = 3 biological replicates): 20% | survival rate (T-47D cells [1]; Annexin V/PI flow cytometry (100 nM, 1 h per Figure S25)): 40% | Pearson's coefficient (colocalization with MitoTracker Red) (T-47D cells [2]; 100 nM probe, 100 nM MitoTracker Red, EzColocalization/ImageJ, 1 = perfect colocalization, -1 = none): 0.397 | subcellular localization (T-47D cells [2]; 100 nM, co-stained with MitoTracker Red): primarily colocalized with the nucleus
